Patent US9149038B2, “4-amino-6-(heterocyclic)picolinates and 6-amino-2-(heterocyclic)pyrimidine-4-carboxylates and their use as herbicides” (Dow AgroSciences LLC, priority 2013, dated 2015)
Read-outs that look alike come from different tables or passages of the source.

How the values were obtained:
[1] = system: Key Grass and Sedge Weeds as well as Grass Crops; assay: Post-Emergent Test II: postemergent herbicidal activity, visual rating after 14 d (Table 8); assay type: in vivo; conditions: post-emergence, 336 h; for pest or weed control at 35 g/ha: 35 g ai/ha; for pest or weed control at 70 g/ha: 70 g ai/ha; for pest or weed control at 140 g/ha: 140 g ai/ha; for pest or weed control at 280 g/ha: 280 g ai/ha
Summary of the method: (§1)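 Visual 0-100% injury score (0 no injury, 100 complete kill) at 14 d post-spray, relative to untreated plants. Seedlings at 1st-2nd true leaf stage; track sprayer at 187 L/ha, highest rate plus ½×, ¼×, ⅛×, 1/16× serial dilutions. Subirrigated after treatment.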

[2] = system: Key Broadleaf Weed and Crop Species; assay: Post-Emergent Test II: postemergent herbicidal activity, visual rating after 14 d (Table 7); assay type: in vivo; conditions: post-emergence, 336 h; for pest or weed control at 35 g/ha: 35 g ai/ha; for pest or weed control at 70 g/ha: 70 g ai/ha; for pest or weed control at 140 g/ha: 140 g ai/ha; for pest or weed control at 280 g/ha: 280 g ai/ha
Summary of the method: as §1

[3] = barnyardgrass (Echinochloa crus-galli), read-out: Visual Growth Reduction (%) 14 Days After Application ECHCG
[4] = giant foxtail (Setaria faberi), read-out: Visual Growth Reduction (%) 14 Days After Application SETFA
[5] = maize, corn (Zea mays), read-out: Visual Growth Reduction (%) 14 Days After Application ZEAMX
[6] = rice (Oryza sativa), read-out: Visual Growth Reduction (%) 14 Days After Application ORYSA
[7] = wheat, spring (Triticum aestivum), read-out: Visual Growth Reduction (%) 14 Days After Application TRZAS
[8] = yellow nutsedge (Cyperus esculentus), read-out: Visual Growth Reduction (%) 14 Days After Application CYPES
[9] = lambsquarters (Chenopodium album), read-out: Visual Growth Reduction (%) 14 Days After Application CHEAL
[10] = oilseed rape, canola (Brassica napus), read-out: Visual Growth Reduction (%) 14 Days After Application BRSNN
[11] = redroot pigweed (Amaranthus retroflexus), read-out: Visual Growth Reduction (%) 14 Days After Application AMARE
[12] = sunflower (Helianthus annuus), read-out: Visual Growth Reduction (%) 14 Days After Application HELAN
[13] = velvetleaf (Abutilon theophrasti), read-out: Visual Growth Reduction (%) 14 Days After Application ABUTH
[14] = wild poinsettia (Euphorbia heterophylla), read-out: Visual Growth Reduction (%) 14 Days After Application EPHHL

SMILES: COC(=O)c1nc(-c2cccc3c2OCO3)c(F)c(N)c1Cl [Compound 71, Methyl 4-amino-6-(benzo[d][1,3]dioxol-4-yl)-3-chloro-5-fluoropicolinate]
- pest or weed control at 35 g/ha [1, 3]: 0 to 29%
- pest or weed control at 70 g/ha [1, 3]: 0 to 29%
- pest or weed control at 140 g/ha [1, 3]: 0 to 29%
- pest or weed control at 280 g/ha [1, 3]: 0 to 29%
- pest or weed control at 35 g/ha [1, 4]: 0 to 29%
- pest or weed control at 70 g/ha [1, 4]: 0 to 29%
- pest or weed control at 140 g/ha [1, 4]: 0 to 29%
- pest or weed control at 280 g/ha [1, 4]: 0 to 29%
- pest or weed control at 35 g/ha [1, 5]: 0 to 29%
- pest or weed control at 70 g/ha [1, 5]: 0 to 29%
- pest or weed control at 140 g/ha [1, 5]: 0 to 29%
- pest or weed control at 280 g/ha [1, 5]: 0 to 29%
- pest or weed control at 35 g/ha [1, 6]: 0 to 29%
- pest or weed control at 70 g/ha [1, 6]: 0 to 29%
- pest or weed control at 140 g/ha [1, 6]: 0 to 29%
- pest or weed control at 280 g/ha [1, 6]: 0 to 29%
- pest or weed control at 35 g/ha [1, 7]: 0 to 29%
- pest or weed control at 70 g/ha [1, 7]: 0 to 29%
- pest or weed control at 140 g/ha [1, 7]: 0 to 29%
- pest or weed control at 280 g/ha [1, 7]: 0 to 29%
- pest or weed control at 35 g/ha [1, 8]: 0 to 29%
- pest or weed control at 70 g/ha [1, 8]: 0 to 29%
- pest or weed control at 140 g/ha [1, 8]: 30 to 44%
- pest or weed control at 280 g/ha [1, 8]: 45 to 59%
- pest or weed control at 35 g/ha [2, 9]: 95 to 100%
- pest or weed control at 70 g/ha [2, 9]: 95 to 100%
- pest or weed control at 140 g/ha [2, 9]: 95 to 100%
- pest or weed control at 280 g/ha [2, 9]: 95 to 100%
- pest or weed control at 35 g/ha [2, 10]: 30 to 44%
- pest or weed control at 70 g/ha [2, 10]: 85 to 94%
- pest or weed control at 140 g/ha [2, 10]: 85 to 94%
- pest or weed control at 280 g/ha [2, 10]: 95 to 100%
- pest or weed control at 35 g/ha [2, 11]: 60 to 74%
- pest or weed control at 70 g/ha [2, 11]: 95 to 100%
- pest or weed control at 140 g/ha [2, 11]: 95 to 100%
- pest or weed control at 280 g/ha [2, 11]: 95 to 100%
- pest or weed control at 35 g/ha [2, 12]: 85 to 94%
- pest or weed control at 70 g/ha [2, 12]: 95 to 100%
- pest or weed control at 140 g/ha [2, 12]: 95 to 100%
- pest or weed control at 280 g/ha [2, 12]: 95 to 100%
- pest or weed control at 35 g/ha [2, 13]: 60 to 74%
- pest or weed control at 70 g/ha [2, 13]: 75 to 84%
- pest or weed control at 140 g/ha [2, 13]: 95 to 100%
- pest or weed control at 280 g/ha [2, 13]: 95 to 100%
- pest or weed control at 35 g/ha [2, 14]: 0 to 29%
- pest or weed control at 70 g/ha [2, 14]: 0 to 29%
- pest or weed control at 140 g/ha [2, 14]: 0 to 29%
- pest or weed control at 280 g/ha [2, 14]: 0 to 29%

SMILES: Nc1c(F)c(-c2ccc(F)c3c2OC(F)(F)O3)nc(C(=O)O)c1Cl [Compound 77]
- pest or weed control at 35 g/ha [1, 3]: 0 to 29%
- pest or weed control at 70 g/ha [1, 3]: 0 to 29%
- pest or weed control at 140 g/ha [1, 3]: 0 to 29%
- pest or weed control at 35 g/ha [1, 4]: 0 to 29%
- pest or weed control at 70 g/ha [1, 4]: 0 to 29%
- pest or weed control at 140 g/ha [1, 4]: 0 to 29%
- pest or weed control at 35 g/ha [1, 5]: 0 to 29%
- pest or weed control at 70 g/ha [1, 5]: 0 to 29%
- pest or weed control at 140 g/ha [1, 5]: 0 to 29%
- pest or weed control at 35 g/ha [1, 6]: 0 to 29%
- pest or weed control at 70 g/ha [1, 6]: 0 to 29%
- pest or weed control at 140 g/ha [1, 6]: 0 to 29%
- pest or weed control at 35 g/ha [1, 7]: 45 to 59%
- pest or weed control at 70 g/ha [1, 7]: 60 to 74%
- pest or weed control at 140 g/ha [1, 7]: 60 to 74%
- pest or weed control at 35 g/ha [1, 8]: 0 to 29%
- pest or weed control at 70 g/ha [1, 8]: 0 to 29%
- pest or weed control at 140 g/ha [1, 8]: 0 to 29%
- pest or weed control at 35 g/ha [2, 9]: 85 to 94%
- pest or weed control at 70 g/ha [2, 9]: 95 to 100%
- pest or weed control at 140 g/ha [2, 9]: 95 to 100%
- pest or weed control at 35 g/ha [2, 10]: 75 to 84%
- pest or weed control at 70 g/ha [2, 10]: 85 to 94%
- pest or weed control at 140 g/ha [2, 10]: 95 to 100%
- pest or weed control at 35 g/ha [2, 11]: 95 to 100%
- pest or weed control at 70 g/ha [2, 11]: 95 to 100%
- pest or weed control at 140 g/ha [2, 11]: 95 to 100%
- pest or weed control at 35 g/ha [2, 12]: 85 to 94%
- pest or weed control at 70 g/ha [2, 12]: 95 to 100%
- pest or weed control at 140 g/ha [2, 12]: 95 to 100%
- pest or weed control at 35 g/ha [2, 13]: 30 to 44%
- pest or weed control at 70 g/ha [2, 13]: 60 to 74%
- pest or weed control at 140 g/ha [2, 13]: 75 to 84%
- pest or weed control at 35 g/ha [2, 14]: 0 to 29%
- pest or weed control at 70 g/ha [2, 14]: 0 to 29%
- pest or weed control at 140 g/ha [2, 14]: 0 to 29%
